Where two headings read alike, the source gives them in different places.
Assays:
Histamine H1 = target: T1, Histamine H1 (Homo sapiens, UniProt P35367); assay: Radioligand displacement binding assay, [3H]pyrilamine, H1
T1 construct: host or cells: CHO-K1

μ opioid receptor (MOP) = target: T2, μ opioid receptor (MOP) (Homo sapiens, UniProt P35372); assay: biochemical; type: binding; conditions: for inhibition at 0.3 µM / inhibition at 3 µM: read-out: % inhibition of binding, MOP
T2 construct: host or cells: CHO-K1

[1] = system: Glutamate, NMDA, Phencyclidine binding site; assay: Radioligand displacement binding assay, [3H]TCP, NMDA; design: species or system Wistar rat
[2] = target: T3, Norepinephrine transporter NET (Homo sapiens, UniProt P23975); assay: Radioligand displacement binding assay, [125I]RTI-55, NET
T3 construct: host or cells: MDCK

[3] = target: GluN1-GluN2C NMDAR subtype (Homo sapiens, UniProt Q05586+Q14957); assay: FLIPR/Ca2+ assay, NMDAR GluN1-GluN2C subtype in CHO cells; type: cell-based
GluN1-GluN2C NMDAR subtype, sequence (Q14957 20-1233, other chains not shown): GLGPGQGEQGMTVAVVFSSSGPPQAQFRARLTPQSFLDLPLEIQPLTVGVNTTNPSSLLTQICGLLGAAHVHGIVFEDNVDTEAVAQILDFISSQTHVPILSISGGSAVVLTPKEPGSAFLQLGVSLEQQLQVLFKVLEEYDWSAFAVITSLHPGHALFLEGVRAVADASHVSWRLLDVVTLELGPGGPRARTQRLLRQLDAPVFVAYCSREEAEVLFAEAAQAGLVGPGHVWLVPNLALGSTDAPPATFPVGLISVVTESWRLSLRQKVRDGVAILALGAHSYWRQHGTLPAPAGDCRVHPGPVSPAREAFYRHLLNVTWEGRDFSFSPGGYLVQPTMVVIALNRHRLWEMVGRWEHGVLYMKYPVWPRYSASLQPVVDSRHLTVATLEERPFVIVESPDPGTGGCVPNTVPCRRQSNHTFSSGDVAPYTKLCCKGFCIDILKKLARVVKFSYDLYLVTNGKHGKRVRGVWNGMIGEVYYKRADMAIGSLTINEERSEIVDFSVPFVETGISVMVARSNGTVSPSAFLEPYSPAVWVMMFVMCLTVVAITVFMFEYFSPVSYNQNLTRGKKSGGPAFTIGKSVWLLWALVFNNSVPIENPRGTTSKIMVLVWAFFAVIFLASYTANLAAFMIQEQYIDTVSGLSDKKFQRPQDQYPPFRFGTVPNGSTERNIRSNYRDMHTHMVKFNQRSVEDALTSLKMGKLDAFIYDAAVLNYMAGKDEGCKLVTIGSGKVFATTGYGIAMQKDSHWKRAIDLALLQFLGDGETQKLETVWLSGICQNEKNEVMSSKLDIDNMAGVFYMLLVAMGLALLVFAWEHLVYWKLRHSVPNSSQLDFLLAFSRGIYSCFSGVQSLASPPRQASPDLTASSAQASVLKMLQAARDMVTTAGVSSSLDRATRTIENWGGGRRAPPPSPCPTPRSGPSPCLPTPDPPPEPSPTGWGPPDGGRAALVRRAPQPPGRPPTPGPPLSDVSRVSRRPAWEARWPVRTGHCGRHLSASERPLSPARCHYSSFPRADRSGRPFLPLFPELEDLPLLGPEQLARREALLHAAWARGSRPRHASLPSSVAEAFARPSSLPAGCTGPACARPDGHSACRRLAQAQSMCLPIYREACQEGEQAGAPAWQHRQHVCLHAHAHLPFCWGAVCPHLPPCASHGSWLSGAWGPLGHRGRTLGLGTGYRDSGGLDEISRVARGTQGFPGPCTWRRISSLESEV
Procedure: (§1) These compounds were assessed for their effects on specific heterodimeric NMDAR subtypes stably overexpressed in Chinese Hamster Ovary (CHO) cells. The subtypes tested included GluN1-GluN2A, GluN1-GluN2B, GluN1-GluN2C, and GluN1-GluN2D. CHO cells expressing each of the four NMDAR subtypes were incubated with 10 μM L-glutamate, a concentration known to elicit maximal Ca^2+ influx, serving as the stimulus. Intracellular Ca^2+ levels were subsequently measured to determine the extent of NMDAR activation.
(§2) Assay buffer composition was 145 mM NaCl, 5 mM KCl, 2 mM CaCl2, 1 g/Liter D-(+)-glucose, and 20 mM HEPES (pH 7.3 adjusted with NaOH). Cells were plated at a density of 15.000/well in 384 black/clear bottom plates. […] Cells were kept at 30 °C in 5% CO2 incubator for 24 h. Cells were preloaded for 1 h with 2 μM Fluo-4 Ca^2+-sensitive probe, simultaneously with 2.5 mM probenecid, an inhibitor of nonspecific anion transport, and 500 μM ketamine to avoid cytotoxicity. […] Intracellular Ca^2+ level was monitored by FLIPR (excitation wavelength at 470–495 nm, emission wavelength at 515–575 nm) for 10 s before and 5 min after the addition of test items. All test items, including L-glutamate and glycine, were added simultaneously. […] FLIPR data were normalized as 100%, in the presence of 10 μM L-glutamate and 10 μM glycine, while as 0%, in the presence of assay buffer. […] Then, data were normalized by Excel 2013 (Microsoft Office) software, using wells added with 10 μM L-glutamate plus 10 μM glycine (column 23) as high control, and wells added with assay buffer only (column 24) as low control. To assess plate quality, Z′ calculations were performed in Excel. Z′ was calculated according to following equation: Z′ = 1–3(σh + σl)/|μh – μL| where μ and σ are the means and the standard deviations of the means of high (h) and low (l) controls, respectively. Compound concentration–response curves were plotted by Prism 8 GraphPad software, in the different experimental conditions (see Supporting Information). Data were analyzed using least-squares regression fitting, to fit data to a standard four parameters logistic equation using GraphPad Prism10. This regression fitting allowed the calculation of pIC50 and the corresponding SEM.

Serotonin 5-HT7 = target: T4, Serotonin 5-HT7 (Homo sapiens, UniProt P34969); assay: Radioligand displacement binding assay, [3H]LSD, 5-HT7
T4 construct: host or cells: CHO-K1
T4 sequence (P34969 whole entry): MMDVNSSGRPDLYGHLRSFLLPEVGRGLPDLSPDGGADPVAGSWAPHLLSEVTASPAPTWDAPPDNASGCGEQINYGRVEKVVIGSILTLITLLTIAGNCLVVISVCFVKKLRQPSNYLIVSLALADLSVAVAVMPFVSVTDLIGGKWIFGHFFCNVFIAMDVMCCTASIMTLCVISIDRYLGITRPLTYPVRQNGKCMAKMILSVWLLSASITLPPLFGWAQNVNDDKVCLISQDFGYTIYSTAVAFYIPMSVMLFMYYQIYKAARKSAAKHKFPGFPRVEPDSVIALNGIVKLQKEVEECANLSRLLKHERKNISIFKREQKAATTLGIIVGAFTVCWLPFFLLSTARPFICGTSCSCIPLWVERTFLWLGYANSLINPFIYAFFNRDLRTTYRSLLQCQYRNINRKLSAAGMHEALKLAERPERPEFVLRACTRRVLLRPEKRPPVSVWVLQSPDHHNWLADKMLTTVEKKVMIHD

[4] = target: GluN1-GluN2D NMDAR subtype (Homo sapiens, UniProt O15399+Q05586); assay: FLIPR/Ca2+ assay, NMDAR GluN1-GluN2D subtype in CHO cells; type: cell-based
Procedure: as §1, §2

[5] = target: T5, Serotonin transporter SERT (Homo sapiens, UniProt P31645); assay: Radioligand displacement binding assay, [3H]paroxetine, SERT
T5 construct: host or cells: HEK-293
T5 sequence (P31645 whole entry): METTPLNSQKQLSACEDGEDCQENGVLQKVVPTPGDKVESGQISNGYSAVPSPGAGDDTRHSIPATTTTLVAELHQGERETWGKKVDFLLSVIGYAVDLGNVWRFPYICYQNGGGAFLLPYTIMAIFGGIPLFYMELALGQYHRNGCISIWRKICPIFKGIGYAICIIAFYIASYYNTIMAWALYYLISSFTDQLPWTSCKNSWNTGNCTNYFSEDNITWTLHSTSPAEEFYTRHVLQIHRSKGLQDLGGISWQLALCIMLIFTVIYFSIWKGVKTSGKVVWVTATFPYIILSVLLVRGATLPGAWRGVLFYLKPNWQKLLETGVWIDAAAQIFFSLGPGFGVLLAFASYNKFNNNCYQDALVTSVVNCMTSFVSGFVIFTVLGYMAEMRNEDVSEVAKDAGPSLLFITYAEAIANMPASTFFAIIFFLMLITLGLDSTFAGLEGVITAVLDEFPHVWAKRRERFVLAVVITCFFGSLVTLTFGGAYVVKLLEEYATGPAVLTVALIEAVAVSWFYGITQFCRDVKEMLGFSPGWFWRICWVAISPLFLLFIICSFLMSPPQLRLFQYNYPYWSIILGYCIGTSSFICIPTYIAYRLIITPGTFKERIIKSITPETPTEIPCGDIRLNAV

Serotonin 5-HT2A = target: T6, Serotonin 5-HT2A (Homo sapiens, UniProt P28223); assay: Radioligand displacement binding assay, [3H]ketanserin, 5-HT2A
T6 construct: host or cells: CHO-K1
T6 sequence (P28223 whole entry): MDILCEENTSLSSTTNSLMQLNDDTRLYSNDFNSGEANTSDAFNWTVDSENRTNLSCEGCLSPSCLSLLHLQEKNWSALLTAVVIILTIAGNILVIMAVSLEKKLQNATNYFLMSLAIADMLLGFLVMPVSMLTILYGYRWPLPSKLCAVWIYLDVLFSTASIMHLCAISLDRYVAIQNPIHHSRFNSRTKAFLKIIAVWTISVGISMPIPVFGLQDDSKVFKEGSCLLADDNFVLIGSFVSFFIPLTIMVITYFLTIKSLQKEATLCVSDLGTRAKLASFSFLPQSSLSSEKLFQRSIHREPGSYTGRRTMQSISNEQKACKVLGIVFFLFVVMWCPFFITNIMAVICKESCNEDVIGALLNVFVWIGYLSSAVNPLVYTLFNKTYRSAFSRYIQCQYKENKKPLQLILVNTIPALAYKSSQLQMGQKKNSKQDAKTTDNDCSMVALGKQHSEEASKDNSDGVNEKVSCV

Serotonin 5-HT1A = target: T7, Serotonin 5-HT1A (Homo sapiens, UniProt P08908); assay: Radioligand displacement binding assay, [3H]8-OH-DPAT, 5-HT1A
T7 construct: host or cells: CHO-K1
T7 sequence (P08908 1-422): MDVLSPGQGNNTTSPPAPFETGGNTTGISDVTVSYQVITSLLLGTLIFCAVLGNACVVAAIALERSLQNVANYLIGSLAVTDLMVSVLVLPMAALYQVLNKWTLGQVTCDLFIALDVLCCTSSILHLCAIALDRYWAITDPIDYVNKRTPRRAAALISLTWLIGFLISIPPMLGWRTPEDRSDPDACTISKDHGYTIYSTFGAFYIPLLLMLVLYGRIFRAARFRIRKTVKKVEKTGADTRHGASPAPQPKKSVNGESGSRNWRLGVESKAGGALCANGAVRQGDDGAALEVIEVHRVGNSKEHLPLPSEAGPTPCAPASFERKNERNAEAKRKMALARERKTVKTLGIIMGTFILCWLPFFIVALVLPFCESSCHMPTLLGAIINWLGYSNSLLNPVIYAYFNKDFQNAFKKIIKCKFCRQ

[6] = target: GluN1-GluN2A NMDAR subtype (Homo sapiens, UniProt Q05586+Q12879); assay: FLIPR/Ca2+ assay, NMDAR GluN1-GluN2A subtype in CHO cells; type: cell-based
Procedure: as §1, §2

Sigma σ1 = target: T8, Sigma σ1 (Homo sapiens, UniProt Q99720); assay: Radioligand displacement binding assay, [3H]pentazocine, sigma σ1
T8 construct: Sigma σ1; Source: Human Jurkat cells; host or cells: Jurkat
T8 sequence (Q99720 whole entry): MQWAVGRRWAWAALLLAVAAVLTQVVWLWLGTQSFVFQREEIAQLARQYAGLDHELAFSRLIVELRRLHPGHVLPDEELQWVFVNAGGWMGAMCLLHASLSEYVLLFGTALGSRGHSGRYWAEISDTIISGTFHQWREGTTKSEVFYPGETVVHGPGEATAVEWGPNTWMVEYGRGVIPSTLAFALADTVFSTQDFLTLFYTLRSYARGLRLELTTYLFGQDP

[7] = target: T9, GluN1-GluN2B NMDAR subtype (Homo sapiens, UniProt Q05586+Q13224); assay: FLIPR/Ca2+ assay, NMDAR GluN1-GluN2B subtype in CHO cells; type: cell-based
T9 construct: host or cells: NR1-2B-CHO cells, constitutive expression
T9 sequence (Q13224 27-1484, other chains not shown): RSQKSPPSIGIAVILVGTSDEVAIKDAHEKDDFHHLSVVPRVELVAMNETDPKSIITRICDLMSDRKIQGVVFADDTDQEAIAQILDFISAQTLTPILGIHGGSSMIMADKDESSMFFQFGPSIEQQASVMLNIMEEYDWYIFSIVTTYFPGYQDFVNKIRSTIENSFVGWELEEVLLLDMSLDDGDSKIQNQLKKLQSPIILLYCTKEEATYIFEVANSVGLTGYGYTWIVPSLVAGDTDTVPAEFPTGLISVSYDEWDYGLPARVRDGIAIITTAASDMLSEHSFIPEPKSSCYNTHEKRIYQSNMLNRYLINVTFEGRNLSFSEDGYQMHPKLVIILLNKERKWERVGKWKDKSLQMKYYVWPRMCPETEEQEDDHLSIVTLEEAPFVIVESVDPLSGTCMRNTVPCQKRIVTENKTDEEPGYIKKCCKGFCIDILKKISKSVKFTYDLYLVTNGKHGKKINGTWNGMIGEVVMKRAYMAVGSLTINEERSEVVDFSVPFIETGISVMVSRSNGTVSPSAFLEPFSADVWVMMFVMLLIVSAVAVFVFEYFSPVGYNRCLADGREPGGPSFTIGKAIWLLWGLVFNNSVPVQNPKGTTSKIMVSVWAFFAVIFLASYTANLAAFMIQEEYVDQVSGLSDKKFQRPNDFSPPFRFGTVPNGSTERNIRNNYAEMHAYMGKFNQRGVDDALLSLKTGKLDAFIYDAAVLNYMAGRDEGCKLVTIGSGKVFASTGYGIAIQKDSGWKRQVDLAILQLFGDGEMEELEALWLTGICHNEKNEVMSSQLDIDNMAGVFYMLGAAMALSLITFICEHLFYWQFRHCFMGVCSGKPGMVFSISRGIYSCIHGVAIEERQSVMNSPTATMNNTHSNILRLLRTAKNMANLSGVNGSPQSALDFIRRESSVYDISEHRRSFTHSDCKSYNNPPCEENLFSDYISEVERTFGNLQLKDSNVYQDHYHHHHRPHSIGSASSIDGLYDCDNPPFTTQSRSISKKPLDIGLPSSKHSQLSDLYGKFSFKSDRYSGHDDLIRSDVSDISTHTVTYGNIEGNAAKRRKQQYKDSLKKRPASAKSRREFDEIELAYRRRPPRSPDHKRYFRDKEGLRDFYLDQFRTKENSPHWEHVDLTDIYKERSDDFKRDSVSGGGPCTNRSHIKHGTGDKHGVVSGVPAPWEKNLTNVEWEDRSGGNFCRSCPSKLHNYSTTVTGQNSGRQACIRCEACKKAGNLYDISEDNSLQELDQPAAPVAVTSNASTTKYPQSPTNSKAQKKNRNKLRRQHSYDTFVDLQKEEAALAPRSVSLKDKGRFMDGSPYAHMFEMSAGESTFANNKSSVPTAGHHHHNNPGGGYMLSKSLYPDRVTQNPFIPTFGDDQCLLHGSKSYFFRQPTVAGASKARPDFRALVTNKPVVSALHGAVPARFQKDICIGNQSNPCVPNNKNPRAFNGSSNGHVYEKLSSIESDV
Procedure: as §1, §2

Serotonin 5-HT2C = target: T10, Serotonin 5-HT2C (Homo sapiens, UniProt P28335); assay: Radioligand displacement binding assay, [3H]mesulergine, 5-HT2C
T10 construct: host or cells: CHO-K1
T10 sequence (P28335 33-458): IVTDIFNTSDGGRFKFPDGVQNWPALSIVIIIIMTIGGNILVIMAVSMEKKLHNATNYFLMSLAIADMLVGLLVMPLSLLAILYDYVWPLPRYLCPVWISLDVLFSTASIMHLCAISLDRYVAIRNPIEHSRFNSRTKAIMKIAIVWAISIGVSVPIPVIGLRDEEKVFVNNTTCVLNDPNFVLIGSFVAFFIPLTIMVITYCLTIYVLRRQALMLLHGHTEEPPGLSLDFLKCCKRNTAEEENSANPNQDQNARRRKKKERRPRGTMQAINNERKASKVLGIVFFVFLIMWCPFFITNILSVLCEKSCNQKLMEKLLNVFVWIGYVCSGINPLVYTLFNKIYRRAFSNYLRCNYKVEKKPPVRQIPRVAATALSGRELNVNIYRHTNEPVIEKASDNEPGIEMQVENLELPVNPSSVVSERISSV

Serotonin 5-HT5A = target: T11, Serotonin 5-HT5A (Homo sapiens, UniProt P47898); assay: Radioligand displacement binding assay, [3H]LSD, 5-HT5A
T11 construct: host or cells: CHO-K1
T11 sequence (P47898 whole entry): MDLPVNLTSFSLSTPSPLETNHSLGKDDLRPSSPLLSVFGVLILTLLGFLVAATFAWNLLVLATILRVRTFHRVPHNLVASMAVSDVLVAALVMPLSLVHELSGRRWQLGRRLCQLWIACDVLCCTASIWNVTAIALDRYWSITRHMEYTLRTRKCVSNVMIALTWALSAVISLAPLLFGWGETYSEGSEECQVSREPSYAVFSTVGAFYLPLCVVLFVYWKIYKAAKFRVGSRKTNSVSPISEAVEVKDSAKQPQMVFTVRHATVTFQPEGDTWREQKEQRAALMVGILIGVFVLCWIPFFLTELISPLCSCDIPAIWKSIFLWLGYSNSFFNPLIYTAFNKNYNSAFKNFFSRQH

Muscarinic M5 = target: T12, Muscarinic M5 (Homo sapiens, UniProt P08912); assay: Radioligand displacement binding assay, [3H]N-methylscopolamine, M5
T12 construct: host or cells: CHO-K1
T12 sequence (P08912 1-532): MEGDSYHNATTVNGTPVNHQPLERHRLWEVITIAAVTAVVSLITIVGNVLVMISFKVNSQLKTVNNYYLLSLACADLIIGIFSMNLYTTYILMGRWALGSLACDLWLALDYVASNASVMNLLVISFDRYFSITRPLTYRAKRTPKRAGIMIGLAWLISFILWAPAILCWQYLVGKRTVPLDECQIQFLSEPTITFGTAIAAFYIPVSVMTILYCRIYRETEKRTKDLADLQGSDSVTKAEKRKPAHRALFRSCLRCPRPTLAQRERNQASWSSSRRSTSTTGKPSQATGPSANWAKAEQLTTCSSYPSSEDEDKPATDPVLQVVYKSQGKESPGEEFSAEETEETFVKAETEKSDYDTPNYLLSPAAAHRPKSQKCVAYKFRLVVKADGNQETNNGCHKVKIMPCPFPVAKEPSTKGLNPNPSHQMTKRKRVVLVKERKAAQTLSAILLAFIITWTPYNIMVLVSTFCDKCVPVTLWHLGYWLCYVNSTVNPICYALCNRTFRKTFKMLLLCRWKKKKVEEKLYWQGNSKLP

[8] = CHO cells, 10 μM L-glutamate and 10 μM glycine, n.d. = 50% of inhibition could not be reached at the highest concentration used
[9] = CHO cells, 10 μM L-glutamate and 10 μM glycine, n.d. = 50% of inhibition could not be reached at the highest concentration used, read-out: pIC50 (mean ± SEM) GluN1-GluN2C (converted)
[10] = CHO cells, 10 μM L-glutamate and 10 μM glycine, n.d. = 50% of inhibition could not be reached at the highest concentration used, read-out: pIC50 (mean ± SEM) GluN1-GluN2D (converted)
[11] = CHO cells, 10 μM L-glutamate and 10 μM glycine, n.d. = 50% of inhibition could not be reached at the highest concentration used, read-out: pIC50 (mean ± SEM) GluN1-GluN2A (converted)
[12] = CHO cells, 10 μM L-glutamate and 10 μM glycine, n.d. = 50% of inhibition could not be reached at the highest concentration used, read-out: pIC50 (mean ± SEM) GluN1-GluN2B (converted)

| Structure (SMILES) | inhibition at 10 µM (Histamine H1) | inhibition at 30 µM (Histamine H1) | inhibition at 0.3 µM (μ opioid receptor (MOP)) | inhibition at 3 µM (μ opioid receptor (MOP)) | % inhibition of binding, NMDA ([1]; 1 μM) | % inhibition of binding, NMDA ([1]; 10 μM) | inhibition at 1 µM [2] | inhibition at 10 µM [2] | pIC50 (mean ± SEM) GluN1-GluN2C [3, 8] | inhibition at 1 µM (Serotonin 5-HT7) | inhibition at 10 µM (Serotonin 5-HT7) | pIC50 (mean ± SEM) GluN1-GluN2D [4, 8] | inhibition at 1 µM [5] | inhibition at 10 µM ([5]; 10 μM) | inhibition at 0.3 µM (Serotonin 5-HT2A) | inhibition at 3 µM (Serotonin 5-HT2A) | inhibition at 0.3 µM (Serotonin 5-HT1A) | inhibition at 3 µM (Serotonin 5-HT1A) | pIC50 (mean ± SEM) GluN1-GluN2A [6, 8] | pIC50 (mean ± SEM) GluN1-GluN2B [7, 8] | other results |
| --- | --- | --- | --- | --- | --- | --- | --- | --- | --- | --- | --- | --- | --- | --- | --- | --- | --- | --- | --- | --- | --- |
| CC[C@@H](O)C(C[C@@H](C)N)(c1ccccc1)c1ccccc1 [(3R,6R)-DNML, (3R,6R)-6-amino-4,4-diphenylheptan-3-ol] | 3% | 9% | -7% | 9% | 12% | 54% | 4% | 6% | 4.7 ± 0.050 | 12% | 8% | 4.7 ± 0.058 | -1% | 20% | 6% | 8% | 0% | 4% | 4.8 ± 0.060 | 4.6 ± 0.054 | inhibition at 0.3 µM (Sigma σ1): 14%; inhibition at 3 µM (Sigma σ1): 47%; inhibition at 0.3 µM (Serotonin 5-HT2C): 7%; inhibition at 3 µM (Serotonin 5-HT2C): 16%; inhibition at 1 µM (Serotonin 5-HT5A): 4%; inhibition at 10 µM (Serotonin 5-HT5A): -4%; inhibition at 1 µM (Muscarinic M5): -1%; inhibition at 10 µM (Muscarinic M5): 33% |
| CC[C@@H](O)C(C[C@@H](C)NC)(c1ccccc1)c1ccccc1 [(3R,6R)-NML, (3R,6R)-6-(methylamino)-4,4-diphenylheptan-3-ol] | 15% | 20% | 4% | 11% | 17% | 57% | -2% | 14% | 5.0 ± 0.048 | 4% | 5% | 5.0 ± 0.052 | 18% | 69% | 0% | -3% | -9% | -10% | 5.0 ± 0.081 | 4.8 ± 0.055 | pKi (mean ± SEM) [3H]diprenorphine, MOP (μ opioid receptor (MOP)): 5.64 ± 0.09; pKi (mean ± SEM) [3H]TCP, NMDA ([1]; Wistar rat cerebral cortex, 4.0 nM [3H]TCP): 5.56 ± 0.07; % inhibition of binding, SERT ([5]; 10 μM): displaced; inhibition at 0.3 µM (Sigma σ1): 4%; inhibition at 3 µM (Sigma σ1): 33%; inhibition at 0.3 µM (Serotonin 5-HT2C): 18%; inhibition at 3 µM (Serotonin 5-HT2C): 16%; inhibition at 1 µM (Serotonin 5-HT5A): 13%; inhibition at 10 µM (Serotonin 5-HT5A): 63%; inhibition at 1 µM (Muscarinic M5): 15%; inhibition at 10 µM (Muscarinic M5): 43% |
| C[C@H]1CC(c2ccccc2)(c2ccccc2)C(=O)N1C [(S)-DDPO, 1,5-Dimethyl-3,3-diphenylpyrrolidin-2-one] |  |  |  |  |  |  |  |  |  |  |  |  |  |  |  |  |  |  |  |  | IC50 [3, 9]: > 100 µM; IC50 [4, 10]: > 100 µM; IC50 [6, 11]: > 100 µM; IC50 [7, 12]: > 100 µM |
| C[C@@H](CC(C(=O)O)(c1ccccc1)c1ccccc1)N(C)C [(S)-DDVA, 4-(Dimethylamino)-2,2-diphenylpentanoic acid] |  |  |  |  |  |  |  |  |  |  |  |  |  |  |  |  |  |  |  |  | IC50 [3, 9]: > 100 µM; IC50 [4, 10]: > 100 µM; IC50 [6, 11]: > 100 µM; IC50 [7, 12]: > 100 µM |
| CCC1=[N+](C)[C@@H](C)CC1(c1ccccc1)c1ccccc1 [(S)-EDDP, 2-Ethyl-1,5-dimethyl-3,3-diphenyl-3,4-dihydro-5H-pyrrolium chloride] |  |  |  |  |  |  |  |  |  |  |  |  |  |  |  |  |  |  |  |  | IC50 [3]: > 100 µM; IC50 [4]: > 100 µM; IC50 [6]: > 100 µM; IC50 [7]: > 100 µM |
| COc1ccc2c(c1)[C@]13CCCC[C@@H]1[C@H](C2)N(C)CC3 [dextromethorphan, reference compound] |  |  |  |  |  |  |  |  | 5.2 ± 0.057 |  |  | 4.6 ± 0.12 |  |  |  |  |  |  | 4.3 ± 0.029 | 4.8 ± 0.037 |  |
